Reference: US11530210B2, “Substituted heteroaromatic pyrazolo-pyridines and their use as GLUN2B receptor modulators” (JANSSEN PHARMACEUTICA NV, priority 2019, dated 2022)
Structures can show the parent of a compound that is named as a salt.

Target: T1, human GluN1/GluN2B NMDA receptors (Homo sapiens, UniProt Q13224)
T1 construct: expressed in transfected cells
Experiment: Calcium flux (FLIPR) assay on cloned human NR1/GluN2B ion channels expressed in mammalian cells (standard and HTS variants)
Type: cell-based
Conditions: cells expressing human GluN1/GluN2B, glutamate and glycine co-agonists
How it was run: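 Calcium influx read by FLIPR after co-agonist addition (glycine 10 μM, glutamate near EC40) following 5 min compound preincubation, with signal normalized to control wells.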

T1 sequence (Q13224 27-1484, other chains not shown): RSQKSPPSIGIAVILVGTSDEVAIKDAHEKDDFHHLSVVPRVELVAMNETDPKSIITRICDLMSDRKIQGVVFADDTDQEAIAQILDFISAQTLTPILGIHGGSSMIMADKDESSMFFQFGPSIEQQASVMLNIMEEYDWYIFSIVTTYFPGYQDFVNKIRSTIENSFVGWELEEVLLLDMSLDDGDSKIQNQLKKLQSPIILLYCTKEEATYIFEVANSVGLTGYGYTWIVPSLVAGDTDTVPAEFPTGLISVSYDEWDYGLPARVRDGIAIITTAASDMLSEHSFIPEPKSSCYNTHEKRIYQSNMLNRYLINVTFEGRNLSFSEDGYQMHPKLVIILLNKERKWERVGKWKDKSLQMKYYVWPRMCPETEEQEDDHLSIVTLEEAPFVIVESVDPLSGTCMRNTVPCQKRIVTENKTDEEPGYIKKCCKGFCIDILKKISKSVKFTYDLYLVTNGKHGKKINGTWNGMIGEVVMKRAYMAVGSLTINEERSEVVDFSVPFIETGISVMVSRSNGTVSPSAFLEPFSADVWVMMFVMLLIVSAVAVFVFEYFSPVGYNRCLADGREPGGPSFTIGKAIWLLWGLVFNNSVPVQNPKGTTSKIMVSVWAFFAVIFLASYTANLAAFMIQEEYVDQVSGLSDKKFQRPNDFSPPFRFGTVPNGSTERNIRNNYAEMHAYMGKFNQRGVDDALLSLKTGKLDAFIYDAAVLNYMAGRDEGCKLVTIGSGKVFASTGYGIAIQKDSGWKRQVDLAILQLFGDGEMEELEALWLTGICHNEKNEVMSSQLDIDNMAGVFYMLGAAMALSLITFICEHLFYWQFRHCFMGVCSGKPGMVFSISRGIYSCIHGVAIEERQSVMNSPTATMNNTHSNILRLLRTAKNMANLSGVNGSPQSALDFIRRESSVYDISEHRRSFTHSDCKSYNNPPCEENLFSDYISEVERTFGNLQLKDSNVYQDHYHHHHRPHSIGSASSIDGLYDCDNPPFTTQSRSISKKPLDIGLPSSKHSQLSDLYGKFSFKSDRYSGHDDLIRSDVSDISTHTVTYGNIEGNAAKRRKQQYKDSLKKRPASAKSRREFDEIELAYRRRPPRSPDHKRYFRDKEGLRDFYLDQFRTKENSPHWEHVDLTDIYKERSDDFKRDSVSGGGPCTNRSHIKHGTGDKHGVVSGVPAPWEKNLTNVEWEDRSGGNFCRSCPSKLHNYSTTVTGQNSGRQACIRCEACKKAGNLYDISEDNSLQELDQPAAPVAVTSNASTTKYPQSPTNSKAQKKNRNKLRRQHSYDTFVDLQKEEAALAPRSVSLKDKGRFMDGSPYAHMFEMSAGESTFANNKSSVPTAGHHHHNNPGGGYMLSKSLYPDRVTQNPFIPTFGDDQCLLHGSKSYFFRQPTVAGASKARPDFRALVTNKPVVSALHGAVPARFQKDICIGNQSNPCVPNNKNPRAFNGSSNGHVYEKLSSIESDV

| SMILES | IC50 |
| --- | --- |
| CC(F)(F)c1cccc(-c2cnc3cnn(Cc4cn[nH]c4)c3c2)c1 [Example 35, 6-[3-(1,1-Difluoroethyl)phenyl]-1-(1H-pyrazol-4-ylmethyl)pyrazolo[4,3-b]pyridine] | 0.648 µM |
| Fc1ccc(Cn2ncc3ncc(-c4ccc(C(F)(F)F)s4)cc32)cn1 [Example 143, 1-((6-Fluoropyridin-3-yl)methyl)-6-(5-(trifluoromethyl)thiophen-2-yl)-1H-pyrazolo[4,3-b]pyridine] | 0.132 µM |
| Cc1ncccc1Cn1ncc2ncc(-c3ccc(F)c(F)c3)cc21 [Example 188, 6-(3,4-Difluorophenyl)-1-[(2-methyl-3-pyridyl)methyl]pyrazolo[4,3-b]pyridine] | 3.62 µM |
| Cc1nccc(Cn2ncc3ncc(-c4ccc(F)c(OC(F)F)c4)cc32)n1 [Example 284, 6-[3-(Difluoromethoxy)-4-fluoro-phenyl]-1-[(2-methylpyrimidin-4-yl)methyl]pyrazolo[4,3-b]pyridine] | 0.942 µM |
| Cc1ncc(Cn2ncc3ncc(-c4cccc(C(F)(F)F)c4)cc32)cn1 [Example 4, 1-[(2-Methylpyrimidin-5-yl)methyl]-6-[3-(trifluoromethyl)phenyl]pyrazolo[4,3-b]pyridine trifluoroacetate salt] | 4.67 µM |
| Cc1c(F)ccc(-c2cnc3cnn(Cc4nnc(C(F)(F)F)o4)c3c2)c1F [Example 119, 2-[[6-(2,4-Difluoro-3-methyl-phenyl)pyrazolo[4,3-b]pyridin-1-yl]methyl]-5-(trifluoromethyl)-1,3,4-oxadiazole] | 0.245 µM |
| FC(F)(F)c1cccc(-c2cnc3cnn(Cc4cncnc4)c3c2)c1 [Example 276, 1-(Pyrimidin-5-ylmethyl)-6-[3-(trifluoromethyl)phenyl]pyrazolo[4,3-b]pyridine] | 0.145 µM |
| N#Cc1cncc(Cn2ncc3ncc(-c4ccc(Cl)s4)cc32)c1 [Example 140, 5-[[6-(5-Chloro-2-thienyl)pyrazolo[4,3-b]pyridin-1-yl]methyl]pyridine-3-carbonitrile] | 0.17 µM |
| FC(F)Oc1cc(-c2cnc3cnn(Cc4cccnc4)c3c2)ccc1Cl [Example 238, 6-[4-Chloro-3-(difluoromethoxy)phenyl]-1-(3-pyridylmethyl)pyrazolo[4,3-b]pyridine] | 0.117 µM |

More lines, now with the values ahead:

| IC50 | SMILES |
| --- | --- |
| 0.4 µM | N#Cc1cccc(Cn2ncc3ncc(-c4cccc(C(F)(F)F)c4)cc32)c1 [Example 23, 3-[[6-[3-(Trifluoromethyl)phenyl]pyrazolo[4,3-b]pyridin-1-yl]methyl]benzonitrile] |
| 0.13 µM | Fc1ccc(-c2cnc3cnn(Cc4ccccn4)c3c2)cc1C(F)F [Example 197, 6-[3-(Difluoromethyl)-4-fluoro-phenyl]-1-(2-pyridylmethyl)pyrazolo[4,3-b]pyridine] |
| 0.049 µM | Fc1ccc(-c2cnc3cnn(Cc4nnc(C(F)(F)F)o4)c3c2)cc1C(F)F [Example 102, 2-[[6-[3-(Difluoromethyl)-4-fluoro-phenyl]pyrazolo[4,3-b]pyridin-1-yl]methyl]-5-(trifluoromethyl)-1,3,4-oxadiazole] |
| 0.107 µM | CC(F)(F)c1cc(-c2cnc3cnn(Cc4cncc(F)c4)c3c2)ccc1F [Example 218, 6-[3-(1,1-Difluoroethyl)-4-fluoro-phenyl]-1-[(5-fluoro-3-pyridyl)methyl]pyrazolo[4,3-b]pyridine] |
| 0.32 µM | COc1nccc(Cn2ncc3ncc(-c4ccc(F)c(C(F)F)c4)cc32)n1 [Example 290, 6-[3-(Difluoromethyl)-4-fluoro-phenyl]-1-[(2-methoxypyrimidin-4-yl)methyl]pyrazolo[4,3-b]pyridine] |
| 0.125 µM | N#Cc1cc(F)cc(Cn2ncc3ncc(-c4ccc(F)c(C(F)F)c4)cc32)c1 [Example 28, 3-[[6-[3-(Difluoromethyl)-4-fluoro-phenyl]pyrazolo[4,3-b]pyridin-1-yl]methyl]-5-fluoro-benzonitrile] |
| 0.353 µM | N#Cc1ccc(Cn2ncc3ncc(-c4ccc(F)c(C(F)F)c4)cc32)s1 [Example 34, 5-((6-(3-(Difluoromethyl)-4-fluorophenyl)-1H-pyrazolo[4,3-b]pyridin-1-yl)methyl)thiophene-2-carbonitrile] |
